Values of other authors as cited in patent publication US9636304B2, “Pharmaceutical composition comprising citrate and bicarbonate salts, and use thereof for treating cystinuria” (ADVICENNE, priority 2010, dated 2017).

Conditions: prior art, oral

In the case of `O=C([O-])CC(O)(CC(=O)[O-])C(=O)[O-].[K+].[K+].[K+]` [potassium citrate], the gastric tolerance is given as “mediocre”.
